# According to ChEMBL document CHEMBL3137667, “[Drug-induced liver injury; fourteenth updated edition of the bibliographic database of liver injuries and related drugs]” (Gastroenterol Clin Biol, 2004):
# Key:
# [1] = human
# [2] = human; remark: listed apart in the source
# [3] = human, serum, 4383 h
# [4] = human; remark: listed apart in the source
# [5] = human; remark: listed apart in the source
# [6] = human, serum
# [7] = human; remark: listed apart in the source
# [8] = Highest frequency of acute liver toxicity observed during clinical trials, expressed as a percentage. [column '% AIGUE' in source]; conditions: human
# [9] = human; remark: listed apart in the source
# [10] = Highest frequency of moderate liver toxicity observed during clinical trials, expressed as a percentage. [column '% BIOL' in source]; conditions: human
# [11] = human; remark: listed apart in the source
# [12] = human; remark: listed apart in the source
# [13] = human, serum; remark: listed apart in the source
# [14] = human; remark: listed apart in the source
# 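Throughout, for Hepatotoxicity (association with vascular disease): count of indexed literature references reporting vascular liver injury in humans, e.g. peliosis hepatitis, hepatic veno-occlusive disease or Budd-Chiari syndrome.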
# 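Throughout, for Hepatotoxicity (benign tumour): value is a count of indexed literature references citing a benign tumour confirmed by histopathology.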
# 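Throughout, for Hepatotoxicity (choleostasis): human cholestatic liver injury, shown by histopathology or by peak ALT or AST elevation over alkaline phosphatase ratio below 2, value counts indexed literature reports.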
# 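Throughout, for Hepatotoxicity (chronic liver disease): chronic liver injury confirmed by histopathology or persistently raised serum aminotransferase activity beyond 6 months, value given as the count of indexed literature references.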
# 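Throughout, for Hepatotoxicity (cirrhosis): value is a count of indexed literature references reporting cirrhosis confirmed by histopathology.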
# 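Throughout, for Hepatotoxicity (cytolytic): human cytolytic liver injury, shown by histopathology or by a ratio above 5 of peak ALT or AST elevation to alkaline phosphatase elevation, value counts indexed references.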
# 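Throughout, for Hepatotoxicity (granulomatous hepatitis): value is a count of indexed literature references reporting granulomatous liver disease confirmed by histopathology.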
# 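Throughout, for Hepatotoxicity (malignant tumour): malignant tumour confirmed by histopathology, value gives the count of indexed literature references reporting it.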
# 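Throughout, for Hepatotoxicity (severe hepatitis): human clinical data: severe hepatitis, meaning potentially life-threatening liver failure or clinically observed cases, the value counts how many indexed literature references report it.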
# 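Throughout, for Hepatotoxicity (steatosis): steatosis confirmed by histopathology, value is the count of indexed references.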
SMILES,Hepatotoxicity (steatosis) [1],Hepatotoxicity (cytolytic) [2],Hepatotoxicity (chronic liver disease) [3],Hepatotoxicity (granulomatous hepatitis) [4],Hepatotoxicity (cirrhosis) [5],Hepatotoxicity (moderate) [6],Hepatotoxicity (choleostasis) [7],Hepatotoxicity (acute) [8] [%],Hepatotoxicity (association with vascular disease) [9],Hepatotoxicity (moderate) [10] [%],Hepatotoxicity (severe hepatitis) [11],Hepatotoxicity (benign tumour) [12],Hepatotoxicity (acute) [13],Hepatotoxicity (malignant tumour) [14],Hepatotoxicity (acute) ([8]; Liver) [%],Hepatotoxicity (moderate) ([10]; Liver) [%],Hepatotoxicity (severe hepatitis) ([11]; Liver)
CN(C)S(=O)(=O)c1ccc2c(c1)N(CCCN1CCC(CCO)CC1)c1ccccc1S2 [PIPOTIAZINE],0,0,0,0,0,1,0,0,0,1.9,0,0,0,0,,,
COc1cccc2c1C(=O)c1c(O)c3c(c(O)c1C2=O)C[C@@](O)(C(=O)CO)C[C@@H]3O[C@H]1C[C@H](N)[C@H](O[C@@H]2CCCCO2)[C@H](C)O1 [PIRARUBICIN],0,0,0,0,0,1,0,0,0,1.1,0,0,0,0,,,
CN1CCN(CC(=O)N2c3ccccc3C(=O)Nc3cccnc32)CC1 [PIRENZEPINE],0,0,0,0,0,2,0,0,0,0.7,0,0,0,0,,,
Cc1cccc(Nc2cc(Cl)nc(SCC(=O)NCCO)n2)c1C [PIRINIXIL],0,0,0,0,0,1,0,0,0,0,0,0,0,0,,,
CC1CCCC(C)N1CCCC(O)(c1ccccc1)c1ccccn1 (stereo unspecified) [PIRMENOL],0,0,0,0,0,1,0,0,0,5.3,0,0,0,0,,,
NCCCNc1ccc2c3c(nn2CCNCCO)-c2c(O)ccc(O)c2C(=O)c13 [PIROXANTRONE],0,0,0,0,0,4,0,0,0,9.1,0,0,0,0,,,
CCc1[nH]c(=O)[nH]c1C(=O)c1ccncc1 [PIROXIMONE],0,0,0,0,0,0,0,0,0,0,0,0,1,0,,,
O=C(O)C[C@H](O)C[C@H](O)/C=C/c1c(C2CC2)nc2ccccc2c1-c1ccc(F)cc1 [PITAVASTATIN],0,0,0,0,0,1,0,,0,,,0,0,0,0,1.7,0
CC(C)(C)C(=O)OCOC(=O)[C@@H]1N2C(=O)[C@@H](NC(=O)[C@H](N)c3ccccc3)[C@H]2SC1(C)C [PIVAMPICILLIN],0,1,0,0,0,0,0,0,0,0,0,0,1,0,,,
